Peptide text beside a SMILES is read from it. * marks the point of attachment. Biotin = O=C1N[C@H]2[C@H](CS[C@H]2CCCCC(=O)*)N1
Target: T1, Sec7-domain of ARNO (Homo sapiens, UniProt Q99418)
T1 construct: iii) 61-252aa, Sec7 domain; GST (N, cleaved yes); made in house; host or cells: E. coli BL21(DE3)
T1 sequence (Q99418 61-252): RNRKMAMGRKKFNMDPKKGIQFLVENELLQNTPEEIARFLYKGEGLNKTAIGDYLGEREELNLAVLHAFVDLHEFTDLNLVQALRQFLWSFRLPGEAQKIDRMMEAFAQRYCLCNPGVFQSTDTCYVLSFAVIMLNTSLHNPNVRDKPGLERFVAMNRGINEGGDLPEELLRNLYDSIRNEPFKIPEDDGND
Experiment: surface plasmon resonance (BIAcore T100) kinetic analysis a2N-01 peptide/Sec7-domain
Type: binding
Conditions: ΔGbind=RTlnKD
Description: 6A, Kinetic analysis and estimation of a dissociation constant (KD) for interaction between full-length a2N(wt) and ARNO(wt) proteins. Sensorgrams for the binding of recombinant a2N-6His immobilized as ligand on the sensor chip, with various concentrations of 6His-ARNO as analyte are shown as follows. The responses on the sensorgram are designated in resonance units (RU). […] 6B, Kinetic analysis and estimation of KD for interaction between a2N-01 peptide and Sec7-domain of ARNO. Sensorgrams for the binding of a2N-01 peptide immobilized as ligand on the sensor chip, with various concentrations of Sec7-domain as analyte are shown as follows. The responses on the sensorgram are designated in resonance units (RU).
All reagents, including buffers, sensor chips and the amine coupling kit, were obtained from GE Healthcare. […] Dissociation of the complexes was monitored for 10 min, and then the regeneration of the sensor surfaces was performed using 0.05% SDS with 1-min injection in the running buffer at a 20 μl/min flow rate. […] The dissociation constant (KD) was determined from the kon/koff values. To estimate affinity of interaction the corresponding free energy of binding ΔGbind=RTlnKD was calculated as previously described (Marles et al., Mol Cell 14 (2004) 813-823). […]

calculated free energy of binding: -8.81 kcal/mol
SMILES: CSCC[C@H](NC(=O)CCCC[C@@H]1SC[C@@H]2NC(=O)N[C@@H]21)C(=O)NCC(=O)N[C@@H](CO)C(=O)N[C@@H](CC(C)C)C(=O)N[C@@H](Cc1ccccc1)C(=O)N[C@@H](CCCNC(=N)N)C(=O)N[C@@H](CO)C(=O)N[C@@H](CCC(=O)O)C(=O)N[C@@H](CO)C(=O)N[C@@H](CCSC)C(=O)N[C@@H](CS)C(=O)N[C@@H](CC(C)C)C(=O)N[C@@H](C)C(=O)N[C@@H](CCC(N)=O)C(=O)N[C@@H](CC(C)C)C(=O)N[C@@H](Cc1ccccc1)C(=O)N[C@@H](CC(C)C)C(=O)N[C@@H](CS)C(=O)O [a2N-01, Bio-MGSLFRSE SMCLAQLFL-Cys] (Biotin-MGSLFRSESMCLAQLFLC-OH; N-terminus and C-terminus assumed)
